Earlier results as cited in patent US20120077687A1, “PROGNOSTIC AND PREDICTIVE GENE SIGNATURE FOR NON-SMALL CELL LUNG CANCER AND ADJUVANT CHEMOTHERAPY” (priority 2010, published 2012).
Where two headings read alike, the source gives them in different places.

Columns and labels:
[1] = tested on: stage IB NSCLC patients; settings: 344 stage IB patients, chemotherapy vs observation
[2] = tested on: non-small cell lung cancer (NSCLC) patients; settings: for HR (survival): LACE meta-analysis

| Molecule | HR, disease-free survival ([1]; p=0.065) | HR, overall survival ([1]; p=0.12) | 5-year survival advantage conferred by adjuvant chemotherapy ([2]; ANITA trial, 840 stage IB-IIIA patients) | 5-year survival advantage conferred by adjuvant chemotherapy ([2]; IALT, 1,867 stage I-III patients) | absolute survival advantage at 5-year ([2]; LACE meta-analysis of 5 cisplatin-based trials) | HR (survival) ([2]; all patients, 95% CI 0.82-0.96, p=0.004) | HR (survival) ([2]; stage IA patients, 95% CI 0.96-2.09, detriment suggested) | HR (survival) ([2]; stage IB patients, 95% CI 0.78-1.10, no significant benefit) | 5-year survival advantage conferred by adjuvant chemotherapy ([2]; NCIC CTG BR.10 Trial, 483 stage IB-II patients) |
| --- | --- | --- | --- | --- | --- | --- | --- | --- | --- |
| carboplatin and paclitaxel | 0.80 | 0.83 | – | – | – | – | – | – | – |
| N.N.[Cl][Pt][Cl] [cisplatin] | – | – | 9% | 4% | 5.3% | 0.89 | 1.41 | 0.92 | 15% |
